This note sets out measurements from article PMC7558026, “Exploring and applying the substrate promiscuity of a C-glycosyltransferase in the chemo-enzymatic synthesis of bioactive C-glycosides” (Nature Communications, 2020).

The target in one assay is T1, SGLT2 (Homo sapiens, UniProt P31639).
T1 construct: Human full-length SGLT2 cDNA (NM_003041.3) was synthesized; expressed in transfected cells; host or cells: HEK293, retroviral transduction with pMSCVpuro-SGLT2, puromycin selected
T1 sequence (P31639 1-672): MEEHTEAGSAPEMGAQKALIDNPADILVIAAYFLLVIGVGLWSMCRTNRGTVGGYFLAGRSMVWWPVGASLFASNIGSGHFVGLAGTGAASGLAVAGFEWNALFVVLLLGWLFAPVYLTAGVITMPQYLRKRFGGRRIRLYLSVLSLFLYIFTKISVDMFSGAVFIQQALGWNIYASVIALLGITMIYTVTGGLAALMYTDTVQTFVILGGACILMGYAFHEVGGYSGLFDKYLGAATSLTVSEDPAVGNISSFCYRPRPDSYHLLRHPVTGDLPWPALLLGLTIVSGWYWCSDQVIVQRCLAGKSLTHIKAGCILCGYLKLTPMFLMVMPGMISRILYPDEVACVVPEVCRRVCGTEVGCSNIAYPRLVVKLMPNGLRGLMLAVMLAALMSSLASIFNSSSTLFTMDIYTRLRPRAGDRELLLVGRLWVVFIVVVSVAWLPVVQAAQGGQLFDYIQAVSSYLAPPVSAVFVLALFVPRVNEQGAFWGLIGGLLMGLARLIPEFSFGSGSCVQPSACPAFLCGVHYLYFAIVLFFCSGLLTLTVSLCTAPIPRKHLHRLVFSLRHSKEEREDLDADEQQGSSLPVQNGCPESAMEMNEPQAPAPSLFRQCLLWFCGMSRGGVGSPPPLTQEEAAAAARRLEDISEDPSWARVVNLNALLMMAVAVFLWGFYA
As to the kind of experiment: 1-NBDG uptake in HEK293 cells stably expressing SGLT2. To be noted: HEK293, compound at 10 μM; triplicate; read-out: SGLT2 inhibitory rates. Format: cell-based.

For another assay, the target named is AbCGT (Aloe vera, UniProt A0A7G9P699). The assay is described as follows: Glycosyltransferase activity assay, purified AbCGT (wild type) with aglycon acceptors and UDP-Glc. The following applies: for conversion rates, O,N,S-glycosylation / conversion rates, di-C-glycosylation / conversion rates, mono-C-glycosylation: aglycon acceptor with UDP-Glc, pH 7.4, 30 °C, up to 12 h; for conversion rates, O,N,S-glycosylation / conversion rates, di-C-glycosylation / conversion rates, mono-C-glycosylation / conversion rates, Purified Enzyme: Reaction-1 to -3; for conversion rates, Purified Enzyme: fig. 2b, purified AbCGT, redesigned substrates. Format: biochemical, Aloe barbadensis.

The target in another assay is T2, AbCGT V183E (Aloe vera, UniProt A0A7G9P699, V183E).
T2 sequence (A0A7G9P699 1-470 V183E): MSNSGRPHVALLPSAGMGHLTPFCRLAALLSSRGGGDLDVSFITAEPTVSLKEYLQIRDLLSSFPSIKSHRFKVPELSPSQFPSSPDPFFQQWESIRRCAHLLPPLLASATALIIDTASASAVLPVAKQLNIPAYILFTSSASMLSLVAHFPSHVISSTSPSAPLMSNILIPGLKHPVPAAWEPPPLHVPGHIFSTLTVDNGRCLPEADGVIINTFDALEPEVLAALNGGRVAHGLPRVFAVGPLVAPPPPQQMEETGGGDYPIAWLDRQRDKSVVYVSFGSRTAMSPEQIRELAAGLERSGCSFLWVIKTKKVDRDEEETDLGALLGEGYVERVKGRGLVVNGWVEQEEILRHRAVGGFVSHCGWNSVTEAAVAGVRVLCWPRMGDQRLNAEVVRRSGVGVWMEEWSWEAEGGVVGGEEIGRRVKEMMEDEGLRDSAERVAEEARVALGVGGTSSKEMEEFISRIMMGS
As to the kind of experiment: Glycosyltransferase activity of AbCGT variant V183E. Format: biochemical, Aloe barbadensis. How it is done:
(§1) The reaction mixture contained 0.5 mM sugar donors (1.0 mM for di-glycosylation), 0.25 mM aglycons, 50 mM Tris-HCl (pH 7.4), and 50‒100 μg of purified AbCGT in a final volume of 100 μL. Due to the instability of some acceptors in the buffer of pH 11.0, the reactions were performed under the physiological conditions (pH 7.4, 30 °C) to compare the catalytic activities of AbGT27 with different substrates under the same conditions. The reactions were performed at 30 °C for up to 12 h and terminated by the addition of 200 μL of ice-cold methanol. Subsequently, samples were centrifuged at 15,000 × g for 30 min to collect the supernatant, and aliquots were analyzed by HPLC-UV/ESIMS. HPLC analysis was performed on a Shiseido CAPCELL PAK C18 MG III column (250 mm × 4.6 mm I.D., 5 μm, Shiseido Co., Ltd., Japan) at a flow rate of 1 mL min^‒1. The mobile phase was a gradient elution of solvents A (0.1% formic acid aqueous solution) and B (methanol). The gradient programs were used for the analysis of the reactions (Supplementary Table 6). The conversion rates of the enzyme reactions were calculated from peak areas of glycosylated products and substrates as analyzed by HPLC. To facilitate inferential statistical analysis, three parallel assays were routinely performed; the means ± SD from triplicate analyses are reported here.
(§2) Site-saturation mutagenesis of AbCGT at residue 183 was performed by PCR using pET28a-AbCGT as a template and the corresponding degenerate primers, which are listed in Supplementary Table 5. PCR products were purified and transformed into Trans1-T1 (DE3) E. coli. The sequences of pET28a-AbCGT mutants were confirmed by sequencing, and transformed into Transetta (DE3) E. coli for heterologous expression following protein purification.

A further assay addresses T3, AbCGT V183D (Aloe vera, UniProt A0A7G9P699, V183D).
T3 sequence (A0A7G9P699 1-470 V183D): T2 sequence (A0A7G9P699 1-470 V183E) with E183D
The assay is described as follows: Glycosyltransferase activity of AbCGT variant V183D. Format: biochemical, Aloe barbadensis. Here is the method:
as §1, §2

The test system of the next assay is E. coli-AbCGT. The assay is described as follows: Glycosylation by whole-cell biocatalyst E. coli-AbCGT. Format: cell-based. To be noted: fig. 2c, 30 °C, M9 medium, 12 h, 0.25 mM acceptor; Reaction-1 to -3. How it is done: The induced cells of E. coli-AbCGT were harvested by centrifugation at 3000 × g for 5 min at 4 °C and washed with ddH2O. Pellets were resuspended by M9 minimal medium containing 2% glucose to appropriate cell density (OD600 = 3.0). Prepared whole-cell biocatalyst of E. coli-AbCGT (500 μL) was then added to 2-mL tubes containing various acceptors at a concentration of 0.25 mM. The mixture was incubated at 30 °C for 12 h with shaking (200 rpm). The reactions were analyzed using GT activity assays as described above. For quantification, three parallel assays were routinely carried out.

Numbering of substitutions follows the chain as printed. “And” between values parts separate entries of the source, which are not always exact repeats. Identical values can stand only once.

Chain of AbCGT (A0A7G9P699 entry or part of it): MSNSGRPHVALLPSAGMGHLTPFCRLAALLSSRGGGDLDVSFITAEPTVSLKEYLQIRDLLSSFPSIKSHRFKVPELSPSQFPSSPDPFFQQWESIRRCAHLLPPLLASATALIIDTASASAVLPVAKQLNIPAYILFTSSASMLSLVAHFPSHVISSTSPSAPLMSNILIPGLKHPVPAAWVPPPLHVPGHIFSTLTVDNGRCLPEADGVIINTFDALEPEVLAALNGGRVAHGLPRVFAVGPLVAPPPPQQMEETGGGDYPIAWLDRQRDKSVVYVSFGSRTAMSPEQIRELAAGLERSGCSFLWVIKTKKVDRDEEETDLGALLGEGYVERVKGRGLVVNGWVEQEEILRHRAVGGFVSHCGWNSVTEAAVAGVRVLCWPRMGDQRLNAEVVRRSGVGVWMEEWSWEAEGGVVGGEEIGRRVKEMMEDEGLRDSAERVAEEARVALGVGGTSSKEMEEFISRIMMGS

For the molecule `O=C(CCc1ccc(O)cc1)c1c(O)cc(O)c([C@@H]2O[C@H](CO)[C@@H](O)[C@H](O)[C@H]2O)c1O` [Compound 17a], at SGLT2, the inhibition at 10 µM was 52.2%.

Regarding `O=C(CCc1ccc(O)cc1)c1c(O)c([C@@H]2O[C@H](CO)[C@@H](O)[C@H](O)[C@H]2O)c(O)c([C@@H]2O[C@H](CO)[C@@H](O)[C@H](O)[C@H]2O)c1O` [Compound 17aa], at SGLT2, the inhibition at 10 µM turned out to be 2.8%.

Regarding `O=C(CCc1ccc(O)cc1)c1c(O)cc(O)c(C2OC(CO)C(O)C(O)C2O)c1O` [Compound 17b, phloretin-3′-C-β-D-galactoside], the inhibition at 10 µM on SGLT2 is -3.1%.

On to `O=C(CCc1ccc(O)cc1)c1c(O)cc(O)c(C2OCC(O)C(O)C2O)c1O` [Compound 17c, phloretin-3′-C-β-D-xyloside], for which the inhibition at 10 µM on SGLT2 was found to be 1.7%.

Turning to `COc1ccc(Cc2c(O)cc(O)cc2O)cc1OC` [Compound 20], at SGLT2, the inhibition at 10 µM was 0.2%. Besides, at AbCGT, the “conversion rates, O,N,S-glycosylation” value is reported as 0%; the “conversion rates, di-C-glycosylation” value came out at 0%; the “conversion rates, mono-C-glycosylation” value is 100%.

For the molecule `COc1ccc(Cc2c(O)cc(O)c([C@@H]3O[C@H](CO)[C@@H](O)[C@H](O)[C@H]3O)c2O)cc1OC` [Compound 20a], the inhibition at 10 µM on SGLT2 amounted to 13.6%.

`COc1ccc(CCc2ccc(O)cc2O)cc1` [Compound 21]: on SGLT2, the inhibition at 10 µM is 1.8%. Besides, on AbCGT, the “conversion rates, O,N,S-glycosylation” value turned out to be 0%; the “conversion rates, di-C-glycosylation” value was 0%; the “conversion rates, mono-C-glycosylation” value was 100%.

Turning to `COc1ccc(CCc2ccc(O)c([C@@H]3O[C@H](CO)[C@@H](O)[C@H](O)[C@H]3O)c2O)cc1` [Compound 21a], the inhibition at 10 µM at SGLT2 is 22.7%.

For `Oc1cc(O)cc(OCCCCCCc2ccccc2)c1` [Compound 22], the “V183E/yield of C-glycoside(%)” value at AbCGT V183E (reaction-1), at AbCGT V183E (reaction-2) and on AbCGT V183E (reaction-3) was 0% throughout. The “V183E/yield of O-glycoside(%)” value at AbCGT V183E (reaction-1), at AbCGT V183E (reaction-2) and on AbCGT V183E (reaction-3) was 0% in each case. The “conversion rates, O,N,S-glycosylation” value at AbCGT was 33% and 31.4% and 25.1%. For the same molecule, at AbCGT, the “conversion rates, di-C-glycosylation” value worked out at 0%. The “conversion rates, mono-C-glycosylation” value on AbCGT was 8.5% and 9.9% and 11.3%. In addition, the “WT/yield of C-glycoside(%)” value at AbCGT (reaction-1) is recorded as 9.6%; at AbCGT (reaction-2), 11%; at AbCGT (reaction-3), 9.5%. Besides, the “WT/yield of O-glycoside(%)” value stood at 28.2% on AbCGT (reaction-1), 26.9% on AbCGT (reaction-2) and 34.6% on AbCGT (reaction-3). Moreover, the “V183D/yield of C-glycoside(%)” value at AbCGT V183D (reaction-1), at AbCGT V183D (reaction-2) and at AbCGT V183D (reaction-3) was 0% in each case. Also, the “V183D/yield of O-glycoside(%)” value on AbCGT V183D (reaction-1), at AbCGT V183D (reaction-2) and at AbCGT V183D (reaction-3) was 0% each time.

Consider `CCc1ccc(O)cc1O` [Compound 27], for which the “conversion rates, Whole cells” value in the assay on E. coli-AbCGT is 0%. Also, the “conversion rates, Purified Enzyme” value at AbCGT was 5.7% and 8.5% and 6.8%.

As to `Oc1ccc(Cc2ccccc2)c(O)c1` [Compound 28], in the assay on E. coli-AbCGT, the “conversion rates, Whole cells” value is 0.5% and 0.7% and 0.3%. The “conversion rates, Purified Enzyme” value at AbCGT is 55.6% and 72.2% and 58.2%.

Regarding `Oc1ccc(/N=N/c2nccs2)c(O)c1` [Compound 29], the “conversion rates, Whole cells” value with E. coli-AbCGT was 3.7% and 5.4% and 5.9%. The “conversion rates, Purified Enzyme” value on AbCGT was 35.9% and 40% and 39.9%.

On to `CCc1c(O)cc(O)cc1O` [Compound 30], for which, in the assay with E. coli-AbCGT, the “conversion rates, Whole cells” value was found to be 0%. The “conversion rates, Purified Enzyme” value on AbCGT was 100%.

`Oc1cc(O)c(CC2CC2)c(O)c1` [Compound 34]: in the assay with E. coli-AbCGT, the “conversion rates, Whole cells” value is 11.3% and 11.9% and 15.8%. At AbCGT, the “conversion rates, Purified Enzyme” value turned out to be 100%.

With `Oc1cc(O)c(CC2CCC2)c(O)c1` [Compound 35], in the assay with E. coli-AbCGT, the “conversion rates, Whole cells” value is 41.1% and 39.5% and 30.5%. At AbCGT, the “conversion rates, Purified Enzyme” value worked out at 100%.

For `Oc1cc(O)c(CC2CCCC2)c(O)c1` [Compound 36], the “conversion rates, Whole cells” value in the assay with E. coli-AbCGT is 53.8% and 69.1% and 57.1%. Further, at AbCGT, the “conversion rates, Purified Enzyme” value is listed as 100%.

Consider `OCC1OC(c2c(O)cc(O)c(Cc3ccccc3)c2O)C(O)C(O)C1O` (stereo not shown) [Compound 38a], for which, on SGLT2, the inhibition at 10 µM was determined as 76.4%.

Take `OCC1OC(c2c(O)cc(O)c(CCc3ccccc3)c2O)C(O)C(O)C1O` (stereo not shown) [Compound 39a]: on SGLT2, the inhibition at 10 µM stood at 23.6%.

As to `OCC1OC(c2c(O)cc(O)c(Cc3ccsc3)c2O)C(O)C(O)C1O` (stereo not shown) [Compound 42a], the inhibition at 10 µM on SGLT2 came out at 68.5%.

For `OCC1OC(c2c(O)cc(O)c(CCc3c[nH]c4ccccc34)c2O)C(O)C(O)C1O` (stereo not shown) [Compound 43a], the inhibition at 10 µM at SGLT2 was 20.4%.

As for `OCC1OC(c2c(O)cc(O)c(Cc3ccc(F)cc3)c2O)C(O)C(O)C1O` (stereo not shown) [Compound 48a], the inhibition at 10 µM at SGLT2 turned out to be 85.4%.

With `OCC1OC(c2c(O)cc(O)c(CCc3ccc(O)cc3)c2O)C(O)C(O)C1O` (stereo not shown) [Compound 51a], the inhibition at 10 µM on SGLT2 is 18.6%.

For `OCC1OC(c2c(O)cc(O)c(CCc3ccc4c(c3)CCO4)c2O)C(O)C(O)C1O` (stereo not shown) [Compound 52a], the inhibition at 10 µM at SGLT2 was 36.7%.

Take `OCC1OC(c2c(O)cc(O)c(CCc3ccc(F)cc3)c2O)C(O)C(O)C1O` (stereo not shown) [Compound 53a]: the inhibition at 10 µM on SGLT2 came to 24.3%.

Turning to `OCC1OC(c2c(O)cc(O)c(CCc3ccc(Cl)cc3)c2O)C(O)C(O)C1O` (stereo not shown) [Compound 54a], the inhibition at 10 µM on SGLT2 was determined as 62.5%.
